Laboratory results reported in the supplement of paper PMC10307832.

Experiments:
Test in all cases: relative viability (nuclei count vs DMSO), 5 days (fraction); higher = more cells survive
Staurosporine + Olaparib = compound: CN[C@@H]1C[C@H]2O[C@@](C)([C@@H]1OC)n1c3ccccc3c3c4c(c5c6ccccc6n2c5c31)C(=O)NC4 [Staurosporine] + O=C(c1cc(Cc2n[nH]c(=O)c3ccccc23)ccc1F)N1CCN(C(=O)C2CC2)CC1 [Olaparib] (partner 8 µM)
How it was run: (§1)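 Dosing by pin tool came one day after lung cancer cell lines were seeded in 1536-well plates, using either one drug or a fixed anchor-drug dose plus five library-drug doses (not always all listed) in √10 steps. After 5 days, nuclei were counted on 4× images. Relative viability is treated-well nuclei count divided by vehicle-well nuclei count, and values are medians of duplicate plates.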

[1] = compound: CN[C@@H]1C[C@H]2O[C@@](C)([C@@H]1OC)n1c3ccccc3c3c4c(c5c6ccccc6n2c5c31)C(=O)NC4 [Staurosporine] + Nc1nc2[nH]cc(CCc3ccc(C(=O)N[C@@H](CCC(=O)O)C(=O)O)cc3)c2c(=O)[nH]1 [Pemetrexed] (partner 0.2 µM)
How it was run: as §1

[2] = compound: CN[C@@H]1C[C@H]2O[C@@](C)([C@@H]1OC)n1c3ccccc3c3c4c(c5c6ccccc6n2c5c31)C(=O)NC4 [Staurosporine] + N=C(N)NC(=N)NCCc1ccccc1 [Phenformin] (partner 250 µM)
How it was run: as §1

Sulindac + Olaparib = compound: CC1=C(CC(=O)O)c2cc(F)ccc2/C1=C\c1ccc([S+](C)[O-])cc1 [Sulindac] + O=C(c1cc(Cc2n[nH]c(=O)c3ccccc23)ccc1F)N1CCN(C(=O)C2CC2)CC1 [Olaparib] (partner 8 µM)
How it was run: as §1

| Cell Line | relative viability (Staurosporine + Olaparib; first compound 0.005 µM) | relative viability (Staurosporine + Olaparib; first compound 0.01581 µM) | relative viability (Staurosporine + Olaparib; first compound 0.05 µM) | relative viability (Staurosporine + Olaparib; first compound 0.1581 µM) | relative viability (Staurosporine + Olaparib; first compound 0.5 µM) | relative viability ([1]; first compound 0.005 µM) | relative viability ([1]; first compound 0.01581 µM) | relative viability ([1]; first compound 0.05 µM) | relative viability ([1]; first compound 0.1581 µM) | relative viability ([1]; first compound 0.5 µM) | relative viability ([2]; first compound 0.005 µM) | relative viability ([2]; first compound 0.01581 µM) | relative viability ([2]; first compound 0.05 µM) | relative viability ([2]; first compound 0.1581 µM) | relative viability ([2]; first compound 0.5 µM) | relative viability (Sulindac + Olaparib; first compound 0.08 µM) | relative viability (Sulindac + Olaparib; first compound 0.253 µM) | relative viability (Sulindac + Olaparib; first compound 0.8 µM) | relative viability (Sulindac + Olaparib; first compound 2.53 µM) | relative viability (Sulindac + Olaparib; first compound 8 µM) |
| --- | --- | --- | --- | --- | --- | --- | --- | --- | --- | --- | --- | --- | --- | --- | --- | --- | --- | --- | --- | --- |
| HCC-78 | 0.98 | 0.638 | 0.654 | 0.455 | 0.417 | 0.978 | 0.893 | 0.882 | 0.927 | 0.881 | 0.639 | 0.45 | 0.486 | 0.376 | 0.287 | 0.972 | 0.812 | 0.763 | 0.784 | 0.686 |
| NCI-H3122 | 0.575 | – | 0.481 | – | 0.281 | 0.183 | – | 0.177 | 0.167 | 0.105 | 0.283 | – | 0.335 | 0.12 | 0.0915 | 0.739 | 0.648 | 0.579 | 0.655 | 0.604 |
| HOP-62 | 0.441 | 0.157 | 0.0992 | 0.143 | 0.104 | 0.267 | 0.133 | 0.134 | 0.113 | 0.0837 | 0.426 | 0.232 | 0.133 | 0.102 | 0.1 | 0.3 | 0.677 | 0.351 | 0.266 | 0.545 |
| NCI-H358 | 0.519 | 0.403 | 0.0954 | 0.0798 | 0.058 | 0.165 | 0.158 | 0.102 | 0.102 | 0.0764 | 0.337 | 0.0847 | 0.0848 | 0.0499 | 0.0405 | 0.809 | 0.667 | 0.526 | 0.573 | 0.62 |
| BEN | 0.976 | 0.799 | 0.641 | 0.514 | 0.362 | 0.831 | 0.749 | 0.523 | 0.261 | 0.303 | 0.247 | – | 0.211 | 0.197 | 0.184 | 0.964 | 1.07 | 1 | 1.05 | 1.06 |
| NCI-H460 | 0.27 | 0.134 | 0.159 | 0.0506 | 0.0242 | 0.065 | 0.0547 | 0.0426 | 0.0415 | 0.0101 | 0.301 | 0.0818 | 0.071 | 0.0104 | 0.0069 | 0.579 | 0.417 | 0.432 | 0.342 | 0.635 |
| ChaGo-K-1 | 0.43 | – | 0.342 | 0.232 | 0.243 | 0.262 | – | 0.251 | 0.141 | 0.163 | 0.461 | 0.233 | 0.351 | 0.158 | 0.123 | 0.485 | 0.359 | 0.414 | 0.379 | 0.449 |
| SK-MES-1 | 0.299 | 0.192 | 0.158 | 0.132 | 0.156 | 0.543 | 0.277 | – | 0.145 | 0.141 | 0.345 | 0.267 | 0.185 | 0.132 | 0.219 | 0.733 | 0.825 | 0.56 | 0.712 | 0.772 |
| SW 900 | 0.544 | 0.428 | 0.362 | 0.212 | 0.169 | 0.404 | 0.356 | 0.296 | 0.161 | 0.115 | 0.364 | 0.184 | 0.189 | 0.111 | 0.127 | 0.968 | 0.965 | – | – | 1.06 |
| NCI-H1792 | 0.147 | 0.0705 | 0.0822 | 0.097 | 0.0652 | 0.28 | 0.0706 | 0.0856 | 0.056 | 0.0352 | 0.255 | 0.0732 | 0.0598 | 0.0859 | 0.0427 | 0.429 | 0.449 | – | 0.453 | 0.725 |
| NCI-H2085 | 0.694 | 0.471 | 0.556 | 0.398 | 0.344 | 0.635 | 0.307 | 0.429 | 0.206 | 0.242 | – | 0.197 | 0.312 | 0.151 | 0.174 | 0.742 | 0.79 | 0.711 | 0.792 | 0.837 |
| LC-2-ad | 0.684 | 0.546 | 0.483 | 0.154 | 0.0646 | 0.277 | 0.21 | 0.209 | 0.102 | 0.0993 | 0.485 | 0.2 | 0.154 | – | 0.171 | 0.746 | 0.677 | 0.676 | 0.686 | 0.66 |
| 201T | 0.834 | – | 0.749 | 0.581 | 0.537 | 0.339 | – | 0.261 | 0.253 | 0.214 | 0.422 | – | 0.343 | 0.266 | 0.198 | 0.896 | 0.825 | 0.846 | 0.886 | 0.883 |
| NCI-H2023 | 0.265 | 0.192 | 0.117 | 0.0758 | 0.0558 | 0.183 | 0.154 | 0.0933 | 0.0756 | 0.0692 | 0.214 | 0.16 | 0.128 | 0.0907 | 0.0615 | 0.486 | 0.511 | – | 0.441 | 0.554 |
| NCI-H1395 | 0.443 | 0.395 | 0.379 | 0.328 | 0.274 | 0.789 | 0.341 | 0.316 | 0.31 | 0.255 | 0.462 | 0.292 | 0.382 | 0.301 | 0.241 | 0.43 | 0.424 | 0.467 | 0.45 | 0.483 |
| NCI-H23 | 0.232 | 0.138 | 0.183 | 0.135 | 0.102 | 0.459 | 0.143 | 0.216 | 0.163 | 0.113 | 0.763 | – | 0.351 | 0.174 | 0.161 | 0.32 | 0.319 | 0.367 | 0.258 | 0.282 |
| LU99A | 0.228 | 0.164 | 0.141 | 0.138 | 0.121 | 0.178 | 0.168 | 0.16 | 0.114 | 0.119 | 0.671 | 0.335 | 0.353 | 0.24 | 0.162 | 0.294 | 0.231 | 0.259 | 0.241 | 0.311 |
| NCI-H1437 | 0.506 | 0.456 | 0.401 | 0.168 | 0.106 | 0.268 | 0.214 | 0.182 | 0.17 | 0.131 | 0.247 | – | 0.187 | 0.11 | 0.118 | 0.748 | 0.679 | 0.503 | 0.638 | 0.665 |
| EKVX | 0.562 | 0.392 | 0.272 | 0.216 | 0.13 | 0.197 | 0.139 | 0.189 | 0.255 | 0.141 | 0.172 | 0.119 | 0.159 | 0.142 | 0.118 | 0.736 | 0.929 | 0.718 | 0.803 | 0.93 |
| NCI-H647 | 0.275 | 0.199 | 0.0866 | 0.0394 | 0.0357 | 0.118 | 0.0997 | 0.104 | 0.0736 | 0.0566 | 0.236 | 0.0676 | 0.0846 | 0.0492 | 0.0636 | 0.689 | 0.577 | 0.346 | 0.398 | 0.785 |
| NCI-H1734 | 0.566 | 0.354 | 0.257 | 0.194 | 0.0713 | 0.394 | 0.305 | 0.338 | 0.133 | 0.141 | 0.348 | 0.179 | 0.153 | 0.116 | 0.107 | 0.634 | 0.67 | 0.609 | 0.649 | 0.674 |
| LCLC-97TM1 | 0.42 | 0.12 | 0.194 | 0.236 | 0.191 | 0.185 | 0.111 | 0.186 | 0.149 | 0.117 | 0.212 | 0.171 | 0.184 | 0.158 | 0.149 | 0.481 | 0.531 | 0.473 | 0.308 | 0.606 |
| NCI-H2170 | 0.617 | – | 0.455 | 0.223 | 0.165 | 0.247 | – | 0.243 | 0.101 | 0.173 | 0.364 | – | 0.354 | 0.14 | 0.157 | 0.658 | 0.576 | 0.493 | 0.591 | 0.626 |
| NCI-H1793 | 0.815 | – | 0.3 | 0.15 | 0.14 | 0.865 | – | 0.371 | 0.154 | 0.125 | 0.453 | – | 0.357 | – | 0.129 | 0.963 | 0.934 | – | 0.973 | 1.08 |
| NCI-H322M | 0.831 | 0.691 | 0.556 | 0.411 | 0.345 | 0.608 | 0.501 | 0.451 | 0.423 | 0.388 | – | 0.348 | – | 0.289 | 0.248 | 0.674 | 0.772 | 0.742 | 0.837 | 0.87 |
| RERF-LC-KJ | 0.726 | 0.537 | 0.304 | 0.228 | 0.188 | 0.501 | 0.423 | 0.375 | 0.205 | 0.202 | 0.209 | 0.269 | 0.225 | 0.241 | 0.229 | 0.949 | 1.01 | 0.971 | 0.861 | 1.07 |
| EPLC-272H | 0.41 | 0.148 | 0.139 | 0.0846 | 0.0704 | 0.213 | 0.13 | 0.146 | 0.0971 | 0.0691 | 0.22 | 0.0782 | 0.0721 | 0.0546 | 0.0603 | 0.828 | 0.852 | 0.72 | 0.639 | 0.727 |
| A-427 | 0.694 | 0.482 | 0.284 | 0.189 | 0.139 | 0.633 | 0.58 | 0.335 | 0.209 | 0.175 | 0.189 | 0.114 | 0.109 | 0.0973 | 0.123 | 0.74 | 0.787 | 0.8 | 0.742 | 0.821 |
